Measured values published in publication PMC12586182 (Frontiers in Oncology, 2025).
“Also recorded” adds a separate entry of the source. Read-outs that look alike come from different tables or passages of the source.

Assays:
[1] = target: T1, WNK1 (Homo sapiens, UniProt Q9H4A3); experiment: Kinase panel profiling at 1 µmol/L (mobility shift assay, Carna); assay type: biochemical; settings: 1 µmol/L of BTK inhibitor
T1 construct: purchased Carna Biosciences

[2] = target: T2, BTK (Homo sapiens, UniProt Q06187); experiment: Kinase enzyme activity assay (mobility shift assay, Carna); assay type: biochemical; settings: for Percentage inhibition of kinase enzyme activity: BTK, 1 µmol/L of BTK inhibitor
T2 construct: purchased Carna Biosciences, Inc
T2 sequence (Q06187 whole entry): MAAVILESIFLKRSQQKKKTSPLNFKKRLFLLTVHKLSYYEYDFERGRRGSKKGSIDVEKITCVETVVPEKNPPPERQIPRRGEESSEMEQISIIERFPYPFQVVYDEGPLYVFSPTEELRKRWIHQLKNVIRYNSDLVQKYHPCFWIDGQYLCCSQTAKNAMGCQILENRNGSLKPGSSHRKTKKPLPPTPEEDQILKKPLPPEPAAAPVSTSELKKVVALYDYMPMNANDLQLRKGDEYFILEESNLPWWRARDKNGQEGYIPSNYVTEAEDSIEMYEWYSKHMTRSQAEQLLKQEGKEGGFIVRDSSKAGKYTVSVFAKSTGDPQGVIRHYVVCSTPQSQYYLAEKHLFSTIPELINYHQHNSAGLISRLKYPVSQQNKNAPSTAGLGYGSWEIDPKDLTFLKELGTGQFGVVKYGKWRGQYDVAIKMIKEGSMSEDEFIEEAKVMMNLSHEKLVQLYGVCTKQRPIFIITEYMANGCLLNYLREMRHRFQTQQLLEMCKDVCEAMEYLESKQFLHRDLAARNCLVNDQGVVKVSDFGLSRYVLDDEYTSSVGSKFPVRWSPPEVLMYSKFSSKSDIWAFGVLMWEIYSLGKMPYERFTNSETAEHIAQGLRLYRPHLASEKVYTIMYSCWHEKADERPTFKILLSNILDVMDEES

[3] = target: T3, SRC (Homo sapiens, UniProt P12931); experiment: Kinase panel profiling at 1 µmol/L (mobility shift assay, Carna); assay type: biochemical; settings: 1 µmol/L of BTK inhibitor
T3 construct: purchased Carna Biosciences
T3 sequence (P12931 whole entry): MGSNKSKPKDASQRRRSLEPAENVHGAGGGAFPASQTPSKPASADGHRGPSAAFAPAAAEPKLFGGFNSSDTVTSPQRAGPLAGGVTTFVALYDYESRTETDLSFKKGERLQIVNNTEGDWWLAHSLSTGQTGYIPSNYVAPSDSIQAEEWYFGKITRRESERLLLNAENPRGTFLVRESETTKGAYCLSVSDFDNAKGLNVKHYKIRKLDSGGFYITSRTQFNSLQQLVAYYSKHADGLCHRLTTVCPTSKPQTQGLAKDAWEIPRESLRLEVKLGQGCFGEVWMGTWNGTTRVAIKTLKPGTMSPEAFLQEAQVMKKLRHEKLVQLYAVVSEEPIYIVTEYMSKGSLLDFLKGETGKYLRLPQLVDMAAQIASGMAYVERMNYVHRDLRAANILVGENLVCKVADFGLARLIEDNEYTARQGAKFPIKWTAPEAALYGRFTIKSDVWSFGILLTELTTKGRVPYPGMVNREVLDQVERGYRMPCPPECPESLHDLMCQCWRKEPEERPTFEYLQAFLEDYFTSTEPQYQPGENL

[4] = target: T4, PKCβ2 (Homo sapiens, UniProt P05771); experiment: as above; assay type: biochemical; settings: 1 µmol/L of BTK inhibitor
T4 construct: purchased Carna Biosciences
T4 sequence (P05771 1-673 isoform P05771-2): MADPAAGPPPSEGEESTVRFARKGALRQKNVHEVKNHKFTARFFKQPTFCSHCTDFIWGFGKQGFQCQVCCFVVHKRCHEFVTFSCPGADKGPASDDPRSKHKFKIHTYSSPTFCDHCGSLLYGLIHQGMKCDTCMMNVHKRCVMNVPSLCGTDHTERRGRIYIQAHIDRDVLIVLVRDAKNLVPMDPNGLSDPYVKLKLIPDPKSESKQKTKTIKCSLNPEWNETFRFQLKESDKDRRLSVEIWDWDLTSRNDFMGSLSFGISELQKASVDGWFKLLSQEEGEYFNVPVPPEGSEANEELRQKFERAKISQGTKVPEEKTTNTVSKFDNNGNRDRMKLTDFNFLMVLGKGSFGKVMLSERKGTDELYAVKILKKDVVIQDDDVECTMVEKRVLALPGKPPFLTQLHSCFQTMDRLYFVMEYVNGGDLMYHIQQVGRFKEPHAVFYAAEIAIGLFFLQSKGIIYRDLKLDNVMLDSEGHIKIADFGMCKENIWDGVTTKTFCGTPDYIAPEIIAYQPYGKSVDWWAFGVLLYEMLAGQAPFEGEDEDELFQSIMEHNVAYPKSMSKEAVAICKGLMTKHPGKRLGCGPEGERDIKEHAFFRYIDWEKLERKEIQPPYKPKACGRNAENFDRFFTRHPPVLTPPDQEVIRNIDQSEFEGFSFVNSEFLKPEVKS

[5] = target: T5, CGK2 (Homo sapiens, UniProt Q13237); experiment: as above; assay type: biochemical; settings: 1 µmol/L of BTK inhibitor
T5 construct: purchased Carna Biosciences
T5 sequence (Q13237 1-762): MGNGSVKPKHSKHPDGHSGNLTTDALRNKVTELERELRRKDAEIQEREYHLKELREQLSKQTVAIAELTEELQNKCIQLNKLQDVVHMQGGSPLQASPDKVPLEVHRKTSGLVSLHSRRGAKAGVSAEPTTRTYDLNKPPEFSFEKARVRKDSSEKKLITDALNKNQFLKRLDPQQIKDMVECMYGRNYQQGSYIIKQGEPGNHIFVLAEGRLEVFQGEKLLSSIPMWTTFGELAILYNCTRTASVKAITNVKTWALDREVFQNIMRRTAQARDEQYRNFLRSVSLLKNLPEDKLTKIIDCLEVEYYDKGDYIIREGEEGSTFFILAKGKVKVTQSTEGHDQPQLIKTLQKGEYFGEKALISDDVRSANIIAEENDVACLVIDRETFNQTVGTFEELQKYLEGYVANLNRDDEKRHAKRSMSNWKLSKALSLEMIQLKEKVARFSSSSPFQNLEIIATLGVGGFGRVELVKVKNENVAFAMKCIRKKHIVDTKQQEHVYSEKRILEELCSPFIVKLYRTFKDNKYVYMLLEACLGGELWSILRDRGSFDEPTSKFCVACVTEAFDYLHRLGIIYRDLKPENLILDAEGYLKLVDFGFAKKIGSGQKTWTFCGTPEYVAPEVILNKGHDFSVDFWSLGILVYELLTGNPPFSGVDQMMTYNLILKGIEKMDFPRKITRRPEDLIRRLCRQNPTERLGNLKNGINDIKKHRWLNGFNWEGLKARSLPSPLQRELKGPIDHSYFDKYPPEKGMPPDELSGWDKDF

[6] = target: YES (Homo sapiens, UniProt P07947); experiment: Kinase enzyme activity assay (mobility shift assay, Carna); settings: 1 µmol/L of BTK inhibitor
[7] = target: biotinylated, inactive MEK1 (Homo sapiens, UniProt Q02750); experiment: Surface plasmon resonance binding (Biacore 1S+); settings: SPR
Chain of biotinylated, inactive MEK1 (Q02750 whole entry): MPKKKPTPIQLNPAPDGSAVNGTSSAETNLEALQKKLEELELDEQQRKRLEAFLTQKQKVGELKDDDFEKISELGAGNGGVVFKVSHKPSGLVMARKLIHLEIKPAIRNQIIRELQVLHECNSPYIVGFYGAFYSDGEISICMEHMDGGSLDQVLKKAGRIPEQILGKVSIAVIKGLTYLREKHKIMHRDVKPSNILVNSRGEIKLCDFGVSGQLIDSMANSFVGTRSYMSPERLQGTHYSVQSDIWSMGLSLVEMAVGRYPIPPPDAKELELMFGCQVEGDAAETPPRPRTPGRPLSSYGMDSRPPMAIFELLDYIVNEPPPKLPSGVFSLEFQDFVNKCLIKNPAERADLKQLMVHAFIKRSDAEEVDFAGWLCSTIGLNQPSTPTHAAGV

[8] = target: T6, MEK2 (Homo sapiens, UniProt P36507); experiment: Kinase enzyme activity assay (ELISA, in-house); assay type: biochemical
T6 construct: purchased Carna Biosciences, Inc. 07-42
T6 sequence (P36507 whole entry): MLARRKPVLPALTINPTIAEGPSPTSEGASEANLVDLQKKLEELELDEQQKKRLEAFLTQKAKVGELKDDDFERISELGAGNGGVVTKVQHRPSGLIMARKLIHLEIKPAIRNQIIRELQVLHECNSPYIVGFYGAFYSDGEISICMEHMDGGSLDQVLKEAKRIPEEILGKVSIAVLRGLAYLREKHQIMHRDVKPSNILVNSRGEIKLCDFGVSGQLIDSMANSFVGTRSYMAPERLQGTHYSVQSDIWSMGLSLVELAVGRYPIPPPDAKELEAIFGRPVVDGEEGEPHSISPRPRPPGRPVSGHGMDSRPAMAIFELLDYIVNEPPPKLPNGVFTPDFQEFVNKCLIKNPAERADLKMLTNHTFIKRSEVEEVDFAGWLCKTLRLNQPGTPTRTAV

[9] = target: T7, BMX (Homo sapiens, UniProt P51813); experiment: Kinase panel profiling at 1 µmol/L (mobility shift assay, Carna); assay type: biochemical; settings: 1 µmol/L of BTK inhibitor
T7 construct: purchased Carna Biosciences

[10] = system: panel of 160 human cancer cell lines; experiment: Cancer cell panel profiling in cell viability assays (ATPlite); assay type: cell-based
Excerpt: A panel of 160 cancer cell lines was used in this study. […]. Cell lines were purchased from the American Type Culture Collection (ATCC) (Manassas, VA, USA), the German Collection of Microorganisms and Cell Cultures (DSMZ) (Braunschweig, Germany), the RIKEN BioResource Research Center (Tsukuba, Ibaraki, Japan) or the Japanese Collection of Research Bioresources (JCRB) (Ibaraki City, Osaka, Japan). All cell lines were propagated in the cell culture media as indicated in Supplementary Table S1 . Cell viability assays were carried out within ten passages of the original vials. The authenticity of the ATCC and DSMZ cell lines has been confirmed by short tandem repeat analysis at both institutions. […]
Intracellular ATP content was used as an indirect readout of cell number using the ATPlite 1Step bioluminescence assay (Revvity, Groningen, the Netherlands). […] After 24 hours of incubation, the starting cell number was determined by adding ATPlite to each well of a control plate and recording luminescence on an Envision multimode reader (Revvity, Waltham, MA, USA) ([4]). […] After incubation for an additional 72 hours, the ATP content was measured in each well using ATPlite. […] Cell doublings were determined by relating the cell number of vehicle-treated controls to the starting cell number for each cell line. […]

[11] = target: B-RAF (Homo sapiens, UniProt P15056); experiment: Radiometric kinase assay with 32P-labeled ATP (Eurofins), cascade assay
Description: Inhibition of MLK1 and B-RAF at K M,ATP was determined in a radiometric assay using ^32P-labeled ATP at Eurofins Cerep SA (Celle-Lévescault, France).

[12] = target: MLK1 (Homo sapiens, UniProt P80192); experiment: Radiometric kinase assay with 32P-labeled ATP (Eurofins)
Description: Inhibition of MLK1 and B-RAF at K M,ATP was determined in a radiometric assay using ^32P-labeled ATP at Eurofins Cerep SA (Celle-Lévescault, France). Interaction with SIK3 was assessed in a competition binding assay at Eurofins DiscoverX LLC (San Diego, CA, USA).

T1 sequence (Q9H4A3 whole entry): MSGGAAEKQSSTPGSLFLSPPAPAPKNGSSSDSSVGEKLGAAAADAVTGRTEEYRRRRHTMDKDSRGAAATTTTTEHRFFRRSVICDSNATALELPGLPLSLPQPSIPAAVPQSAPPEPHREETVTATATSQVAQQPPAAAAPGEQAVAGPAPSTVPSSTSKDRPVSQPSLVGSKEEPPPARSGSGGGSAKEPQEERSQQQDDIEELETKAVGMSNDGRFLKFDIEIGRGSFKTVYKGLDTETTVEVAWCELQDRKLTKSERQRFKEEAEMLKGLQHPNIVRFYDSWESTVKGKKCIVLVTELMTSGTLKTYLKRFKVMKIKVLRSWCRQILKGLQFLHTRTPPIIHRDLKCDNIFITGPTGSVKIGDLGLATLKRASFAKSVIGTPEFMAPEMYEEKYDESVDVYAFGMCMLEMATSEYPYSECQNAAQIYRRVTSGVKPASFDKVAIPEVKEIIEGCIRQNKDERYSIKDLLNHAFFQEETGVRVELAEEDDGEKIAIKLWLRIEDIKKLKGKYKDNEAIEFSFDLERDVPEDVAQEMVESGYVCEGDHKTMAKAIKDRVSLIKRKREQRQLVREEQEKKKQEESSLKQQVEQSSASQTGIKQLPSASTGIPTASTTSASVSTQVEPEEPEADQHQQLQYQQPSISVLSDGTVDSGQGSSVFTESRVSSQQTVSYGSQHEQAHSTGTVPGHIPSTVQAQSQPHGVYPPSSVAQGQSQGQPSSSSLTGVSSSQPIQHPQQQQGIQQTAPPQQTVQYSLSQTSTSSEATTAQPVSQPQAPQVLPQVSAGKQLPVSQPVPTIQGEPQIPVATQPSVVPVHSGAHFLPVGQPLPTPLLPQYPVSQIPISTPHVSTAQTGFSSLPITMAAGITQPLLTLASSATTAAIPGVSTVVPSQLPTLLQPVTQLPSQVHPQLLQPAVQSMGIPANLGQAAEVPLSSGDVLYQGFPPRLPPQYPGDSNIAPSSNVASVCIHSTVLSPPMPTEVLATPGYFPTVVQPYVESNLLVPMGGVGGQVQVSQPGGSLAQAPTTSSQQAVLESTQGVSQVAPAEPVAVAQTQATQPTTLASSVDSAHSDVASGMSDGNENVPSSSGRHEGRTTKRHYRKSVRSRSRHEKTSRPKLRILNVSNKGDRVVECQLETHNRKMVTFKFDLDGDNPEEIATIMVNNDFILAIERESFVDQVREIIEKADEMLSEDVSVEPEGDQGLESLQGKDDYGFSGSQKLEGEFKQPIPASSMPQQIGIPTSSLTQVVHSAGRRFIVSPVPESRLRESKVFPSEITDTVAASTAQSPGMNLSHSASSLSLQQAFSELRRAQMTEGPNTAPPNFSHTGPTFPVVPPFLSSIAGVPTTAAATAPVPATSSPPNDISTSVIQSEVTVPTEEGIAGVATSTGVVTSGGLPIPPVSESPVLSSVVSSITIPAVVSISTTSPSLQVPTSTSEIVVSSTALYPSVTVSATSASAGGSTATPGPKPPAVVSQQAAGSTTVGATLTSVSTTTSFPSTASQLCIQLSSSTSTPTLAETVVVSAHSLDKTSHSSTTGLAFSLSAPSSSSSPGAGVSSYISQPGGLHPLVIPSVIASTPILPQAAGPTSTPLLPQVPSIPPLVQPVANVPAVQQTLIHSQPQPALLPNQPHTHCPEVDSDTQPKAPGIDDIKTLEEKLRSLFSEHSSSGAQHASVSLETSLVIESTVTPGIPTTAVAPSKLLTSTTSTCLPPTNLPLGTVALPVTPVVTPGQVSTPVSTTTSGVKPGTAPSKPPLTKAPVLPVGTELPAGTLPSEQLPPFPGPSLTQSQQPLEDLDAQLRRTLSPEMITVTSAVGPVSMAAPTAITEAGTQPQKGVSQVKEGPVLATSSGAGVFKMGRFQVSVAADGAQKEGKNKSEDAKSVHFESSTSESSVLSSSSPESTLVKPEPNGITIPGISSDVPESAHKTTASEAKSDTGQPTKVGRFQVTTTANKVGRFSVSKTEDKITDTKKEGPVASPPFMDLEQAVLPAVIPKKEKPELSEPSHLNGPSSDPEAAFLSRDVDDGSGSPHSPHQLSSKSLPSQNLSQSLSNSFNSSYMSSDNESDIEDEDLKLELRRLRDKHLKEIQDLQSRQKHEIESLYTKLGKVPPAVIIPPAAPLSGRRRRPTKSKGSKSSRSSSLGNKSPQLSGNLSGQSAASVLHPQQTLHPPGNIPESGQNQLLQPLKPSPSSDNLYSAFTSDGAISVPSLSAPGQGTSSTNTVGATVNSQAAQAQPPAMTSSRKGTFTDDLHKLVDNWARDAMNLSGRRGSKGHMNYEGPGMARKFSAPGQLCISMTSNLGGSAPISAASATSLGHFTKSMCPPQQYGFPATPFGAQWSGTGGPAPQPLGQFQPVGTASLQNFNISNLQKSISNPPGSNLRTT

SMILES	Percentage inhibition of kinase enzyme activity [1]	Percentage inhibition of kinase enzyme activity [2]	Percentage inhibition of kinase enzyme activity [3]	Percentage inhibition of kinase enzyme activity [4]	Percentage inhibition of kinase enzyme activity [5]	Percentage inhibition of kinase enzyme activity [6]	log (kd) [7]	log(ka) [7]	t1/2 [7]	IC50 ([8]; 1 mmol/L ATP, read-out: IC50, MEK2)	IC50 ([8]; IC50, MEK2)	Percentage inhibition of kinase enzyme activity [9]	Extent of inhibition of viability ([10]; SU-DHL-6 and REC-1 cells, dose-response curves)	Sensitivity of BRAF-mutant versus BRAF wild-type cell lines ([10]; average over cell panel, ANOVA)	IC50 [11]	IC50 [12]	Inhibition of MLK1 [12]	IC50 ([2]; K M,bin ATP)
CC#CC(=O)N1CCC[C@H]1c1nc(-c2ccc(C(=O)Nc3ccccn3)cc2)c2c(N)nccn12 [acalabrutinib]	5.36%	94.95%	10.46%	-12.04%	1.55%	21.84%												
C=CC(=O)N1CCC[C@@H](n2nc(-c3ccc(Oc4ccccc4)cc3)c3c(N)ncnc32)C1 [ibrutinib]	2.30%			1.78%	-1.77%													
O=C(c1ccc(Oc2ccccc2)cc1Cl)c1c[nH]c2ncnc(N[C@@H]3CC[C@@H](CO)OC3)c12 [nemtabrutinib]	8.78%	97.07%		-1.79%	-1.75%		-3.49	4.50	35.67 min	494 nM	9.5 nM	100.05%	almost complete inhibition of viability	three times higher; also recorded: three times more sensitive	73 nM	4870 nM	did not inhibit	
COc1ccc(F)cc1C(=O)NCc1ccc(-c2nn([C@@H](C)C(F)(F)F)c(N)c2C(N)=O)cc1 [pirtobrutinib]	-5.02%	98.09%	4.75%	-8.67%	-1.75%	72.60%						29.35%						2.3 nM
C=CC(=O)N1CCC([C@@H]2CCNc3c(C(N)=O)c(-c4ccc(Oc5ccccc5)cc4)nn32)CC1 [zanubrutinib]				-1.66%														
